Laboratory results reported in PubChem BioAssay (NCI).
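In this assay, cells in 96-well plates receive the compound at five concentrations for 48 hours. Endpoints are linearly interpolated between the surrounding concentrations. GI50 marks 50% less growth. Definition used: TGI = concentration required for complete inhibition of growth.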

Columns and labels:
Experiment in all cases: DTP human tumour cell line panel, 48 h
[1] = system: HOP-92 NSCLC
[2] = system: SF-268 CNS
[3] = system: SK-MEL-2 melanoma
[4] = system: K-562 leukemia
[5] = system: CCRF-CEM leukemia
[6] = system: HOP-62 NSCLC
[7] = system: HT29 colon
[8] = system: ACHN renal
[9] = system: NCI-H226 lung
[10] = system: RPMI-8226 leukemia
[11] = system: A549 NSCLC
[12] = system: CAKI-1 renal

SMILES: CCOc1ccc(/C=C2\N=C(c3ccccc3)OC2=O)cc1
- TGI [1]: > 100 µM
- TGI [2]: > 100 µM
- TGI [3]: > 100 µM
- TGI [4]: > 100 µM
- TGI [5]: > 100 µM
- TGI [6]: > 100 µM
- TGI [7]: > 100 µM
- TGI [8]: > 100 µM
- TGI [9]: > 100 µM
- TGI [10]: > 100 µM
- TGI [11]: > 100 µM

SMILES: C/C(=N/NC(=O)c1ccncc1)C(F)(F)F
- TGI [1]: > 100 µM
- TGI [3]: > 100 µM
- TGI [4]: > 100 µM
- TGI [12]: > 100 µM
- TGI [6]: > 100 µM
- TGI [7]: > 100 µM
- TGI [9]: > 100 µM
- TGI [10]: > 100 µM

SMILES: NCCCCCC(CCN)SCC1OC(n2cnc3c(N)ncnc32)C(O)C1O (configuration not stated)
- TGI [1]: > 1240 µM
- TGI [2]: > 1500 µM
- TGI [3]: > 1500 µM
- TGI [4]: > 1500 µM
- TGI [5]: > 1500 µM
- TGI [12]: 1270 µM
- TGI [6]: > 1500 µM
- TGI [7]: > 1500 µM
- TGI [9]: > 1500 µM
- TGI [10]: 1140 µM
- TGI [11]: > 1500 µM

SMILES: COc1cccc2c1C(=O)c1c(O)c3c(c(O)c1C2=O)C[C@@](O)(C(=O)CO)CC3OC1CC(N(C)CCOCC(OC(C)=O)OC(C)=O)C(O)C(C)O1 (some centres not stated)
- TGI [1]: > 0.01 µM
- TGI [2]: > 0.01 µM
- TGI [3]: > 0.01 µM
- TGI [4]: > 0.01 µM
- TGI [5]: > 0.01 µM
- TGI [12]: > 0.01 µM
- TGI [6]: > 0.01 µM
- TGI [7]: > 0.01 µM
- TGI [8]: > 0.01 µM
- TGI [9]: > 0.01 µM
- TGI [10]: > 0.01 µM
- TGI [11]: > 0.01 µM

SMILES: COC(=O)/C=C1\SC2(OC1=Nc1ccccc1)C1CC3CC(C1)CC2C3 (configuration not stated)
- TGI [1]: > 100 µM
- TGI [3]: > 100 µM
- TGI [4]: > 100 µM
- TGI [5]: > 100 µM
- TGI [12]: > 100 µM
- TGI [6]: > 100 µM
- TGI [7]: > 100 µM
- TGI [8]: > 100 µM
- TGI [9]: > 100 µM
- TGI [10]: > 100 µM
- TGI [11]: > 100 µM

SMILES: C[N+]1(C)C2CC(OC(=O)C(CO)c3ccccc3)CC1C1OC12 (configuration not stated)
- TGI [3]: > 100 µM
- TGI [4]: > 100 µM
- TGI [5]: > 100 µM
- TGI [12]: > 100 µM
- TGI [6]: > 100 µM
- TGI [7]: > 100 µM
- TGI [8]: > 100 µM
- TGI [9]: > 100 µM
- TGI [10]: > 100 µM
- TGI [11]: > 100 µM

SMILES: O=C1c2cc(Br)ccc2-c2ccc3c4ccc5c6c(ccc(c7ccc1c2c73)c64)C(=O)c1cc(Br)ccc1-5
- TGI [1]: > 100 µM
- TGI [2]: > 100 µM
- TGI [3]: > 100 µM
- TGI [4]: > 100 µM
- TGI [5]: > 100 µM
- TGI [12]: > 100 µM
- TGI [6]: > 100 µM
- TGI [7]: > 100 µM
- TGI [8]: > 100 µM
- TGI [9]: > 100 µM
- TGI [10]: > 100 µM
- TGI [11]: > 100 µM

SMILES: CC(=O)CCC#Cc1ccccc1C(=O)C(C)=[N+]=[N-]
- TGI [1]: > 100 µM
- TGI [2]: > 100 µM
- TGI [3]: > 100 µM
- TGI [4]: > 100 µM
- TGI [5]: > 100 µM
- TGI [6]: > 100 µM
- TGI [7]: > 100 µM
- TGI [8]: > 100 µM
- TGI [9]: > 100 µM
- TGI [10]: 68.3 µM
- TGI [11]: > 100 µM

SMILES: O=C1C=CC2(C=C1)O[C@H](COCc1ccccc1)[C@@H](COCc1ccccc1)O2
- TGI [1]: 2.64 µM
- TGI [2]: 3.69 µM
- TGI [3]: 3.46 µM
- TGI [4]: > 100 µM
- TGI [12]: 5.88 µM
- TGI [6]: 5.12 µM
- TGI [7]: 5.88 µM
- TGI [8]: 3.1 µM
- TGI [9]: 3.89 µM
- TGI [10]: 1.94 µM
- TGI [11]: 39 µM

SMILES: COc1ccc(-c2cc(N3CCN(c4ccc(Cl)cc4)CC3)c(C#N)c(=O)o2)cc1
- TGI [1]: > 100 µM
- TGI [2]: 33.5 µM
- TGI [3]: 45.3 µM
- TGI [12]: 34.2 µM
- TGI [7]: > 100 µM
- TGI [8]: 35.2 µM
- TGI [9]: 7.57 µM
- TGI [10]: 87.9 µM
- TGI [11]: 32.3 µM

SMILES: O=C(O)c1ccccc1CN1CCCC(C(=O)O)C1 (configuration not stated)
- TGI [1]: > 100 µM
- TGI [2]: > 100 µM
- TGI [3]: > 100 µM
- TGI [4]: > 100 µM
- TGI [12]: > 100 µM
- TGI [6]: > 100 µM
- TGI [7]: > 100 µM
- TGI [8]: > 100 µM
- TGI [9]: > 100 µM
- TGI [10]: > 100 µM
- TGI [11]: > 100 µM

SMILES: CC[C@@H]1/C=C/C=C/C[C@H](C)[C@@H](O)[C@@H](C)C(=O)[C@H](C)[C@@H](O)[C@H](C)C(=O)[C@H](C)[C@@H](O)[C@H](C)/C=C/C(=O)O[C@H]2[C@@H](C)[C@@H](CC1)O[C@@]1(CC[C@@H](C)[C@@H](CC(C)O)O1)[C@@H]2C (some centres not stated)
- TGI [1]: > 20 µM
- TGI [2]: > 25 µM
- TGI [3]: 18.1 µM
- TGI [4]: > 25 µM
- TGI [5]: > 14.4 µM
- TGI [12]: > 25 µM
- TGI [6]: > 25 µM
- TGI [7]: 13.9 µM
- TGI [8]: 16.7 µM
- TGI [10]: 14.7 µM
- TGI [11]: > 16.9 µM

SMILES: CN1C2CCC1/C(=C/c1cccc3c1OCO3)C(=O)/C2=C\c1cccc2c1OCO2
- TGI [1]: 98.7 µM
- TGI [2]: > 100 µM
- TGI [3]: > 100 µM
- TGI [5]: > 100 µM
- TGI [6]: 41.2 µM
- TGI [7]: > 100 µM
- TGI [8]: > 100 µM
- TGI [9]: > 100 µM
- TGI [10]: > 100 µM

SMILES: Cc1cccc2cc(/C=C/C(=O)/C=C/c3ccc(Cl)cc3)c(=O)[nH]c12
- GI50 [1]: > 100 µM
- TGI [1]: > 100 µM
- GI50 [3]: > 100 µM
- TGI [3]: > 100 µM
- GI50 [4]: 3.8 µM
- TGI [4]: > 100 µM
- GI50 [5]: 3.98 µM
- TGI [5]: 88.8 µM
- GI50 [12]: > 100 µM
- TGI [12]: > 100 µM
- GI50 [6]: > 100 µM
- TGI [6]: > 100 µM
- GI50 [10]: 0.331 µM
- TGI [10]: 1.26 µM

SMILES: NC(Cc1ccc(CP(=O)(O)O)cc1)C(=O)O (configuration not stated)
- TGI [1]: > 100 µM
- TGI [2]: > 100 µM
- TGI [3]: > 100 µM
- TGI [4]: > 100 µM
- TGI [5]: > 100 µM
- TGI [12]: > 100 µM
- TGI [7]: > 100 µM
- TGI [8]: > 100 µM
- TGI [10]: > 100 µM
- TGI [11]: > 100 µM

SMILES: Fc1ccc(Nc2nc(Cl)c3[nH]cnc3n2)cc1Cl
- TGI [1]: > 100 µM
- TGI [2]: > 100 µM
- TGI [3]: > 100 µM
- TGI [5]: > 100 µM
- TGI [12]: > 100 µM
- TGI [6]: > 100 µM
- TGI [7]: > 100 µM
- TGI [8]: > 100 µM
- TGI [9]: > 100 µM
- TGI [10]: > 100 µM
- TGI [11]: > 100 µM

SMILES: O=C(O)C(Cc1cc(I)c(O)c(I)c1)C1CCCCC1 (configuration not stated)
- TGI [1]: > 100 µM
- TGI [2]: > 100 µM
- TGI [4]: > 100 µM
- TGI [5]: > 100 µM
- TGI [12]: > 100 µM
- TGI [6]: > 100 µM
- TGI [7]: 98.3 µM
- TGI [8]: > 100 µM
- TGI [9]: > 100 µM
- TGI [11]: > 100 µM

SMILES: C=C=C[P+](c1ccccc1)(c1ccccc1)c1ccccc1
- TGI [2]: > 100 µM
- TGI [3]: 26.5 µM
- TGI [4]: 9.46 µM
- TGI [5]: 22.3 µM
- TGI [6]: > 100 µM
- TGI [8]: > 100 µM
- TGI [10]: 6.37 µM
- TGI [11]: > 100 µM

SMILES: CCOC(=O)CC1=N/C(=N/C(=N)N[N+](=O)[O-])SC1
- TGI [1]: > 100 µM
- TGI [2]: > 100 µM
- TGI [3]: > 100 µM
- TGI [4]: > 100 µM
- TGI [5]: > 100 µM
- TGI [12]: > 100 µM
- TGI [6]: > 100 µM
- TGI [7]: > 100 µM
- TGI [8]: > 100 µM
- TGI [9]: > 100 µM
- TGI [11]: > 100 µM

SMILES: NC(N)=N/N=C\c1c(-c2cccc([N+](=O)[O-])c2)nc2sccn12
- TGI [1]: 27.6 µM
- TGI [3]: 6.49 µM
- TGI [4]: > 100 µM
- TGI [5]: > 100 µM
- TGI [12]: 45.3 µM
- TGI [6]: > 100 µM
- TGI [7]: 4.23 µM
- TGI [8]: 5.68 µM
- TGI [10]: > 100 µM
- TGI [11]: 51.6 µM

SMILES: Nc1ccccc1N
- TGI [1]: > 100 µM
- TGI [2]: > 100 µM
- TGI [3]: > 100 µM
- TGI [4]: > 100 µM
- TGI [5]: > 100 µM
- TGI [12]: > 100 µM
- TGI [6]: > 100 µM
- TGI [7]: > 100 µM
- TGI [8]: > 100 µM
- TGI [10]: > 100 µM
- TGI [11]: > 100 µM
